Where two headings read alike, the source gives them in different places.
Assays:
Human NAMPT = biological target: T1, Human NAMPT (Homo sapiens, UniProt P43490); test: Nampt Activity Assay (coupled enzyme fluorometric, resazurin/diaphorase); assay type: biochemical; conditions: His-tagged human NAMPT, 3 μM NAM, 8 μM PRPP, room temperature up to 3 hours; read-out: in vitro IC50 (Nampt catalytic activity)
T1 construct: 6xHis (N); made in house; host or cells: E. coli BL21-AI
Text: 5-phosphoribosyl-1-pyrophosphate (PRPP), ATP, NaM, NaMN, Triton X-100, UDP-glucose and diaphorase were purchased from Sigma-Aldrich, St. Louis, Mo. Human NAMPT, NMN adenylyltransferase (NMNAT1) and UDP-glucose dehydrogenase (UGDH) encoding DNAs were each inserted into a house-modified E. Coli expression vector such that the expressed proteins carried an N-terminal 6×His tag. The His-tagged proteins were expressed in the BL21-AI E. Coli expression strain (Invitrogen Corporation, Carlsbad, Calif.) following induction by 0.2% L-arabinose and 0.5 mM IPTG at 30° C. Proteins were purified on Ni-NTA resin (Qiagen, Germantown, Md.).
The assay for Nampt catalytic activity was constructed based on a previously published coupled enzyme fluorometric technique, which employs NADH as ultimate analyte (Revollo, J. R. et al. Biol. Chem. 279, 50754-50763 (2004)). A substantial improvement in assay sensitivity was achieved by switching from direct detection to a resazurin/diaphorase-based fluorometric detection system for NADH (Guilbault, G. G., and Kramer, D. N. Anal. Chem. 37, 1219-1221 (1965)). The standard inhibition analyses were performed in a real-time mode in 96-well microtiter plates using 50 mM Tris-HCl, pH 7.5, 1% DMSO (v/v), 0.01% Triton X-100 (v/v), 10 mM MgCl2, 2 mM ATP, 3 μM NAM, 8 μM PRPP, […], as well as the following detection reagents: 5 nM Nmnat, 200 nM Ugdh, 200 μM UDP-glucose, 0.02 U/mL diaphorase and 0.25 μM resazurin. Incubation of samples at room temperature for up to 3 hours was followed by quantification of fluorescence intensities at excitation and emission wavelengths of 510 nm and 590 nm, respectively, using Gemini XS plate reader (Molecular Devices, Sunnyvale, Calif.). The counter-assay intended to disqualify false positives, such as inhibitors of detection enzymes or fluorescence quenchers, was carried out essentially as described above with an exception that 1 μM NaMN was substituted for Nampt.

[1] = Cytotoxicity Assay (HCT116, CellTiter-Glo); assay type: cell-based; conditions: human
How it was run: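 Cells settled overnight, then exposed to compound in DMSO for 72 h, optionally with nicotinic acid (10 μM final) added alongside. Viability read as CellTiter-Glo luminescence.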

[2] = HCT116 cells, 72 hours drug incubation, CellTiter-Glo luminescence, read-out: HCT116 cell cytotoxicity IC50

T1 sequence (P43490 whole entry): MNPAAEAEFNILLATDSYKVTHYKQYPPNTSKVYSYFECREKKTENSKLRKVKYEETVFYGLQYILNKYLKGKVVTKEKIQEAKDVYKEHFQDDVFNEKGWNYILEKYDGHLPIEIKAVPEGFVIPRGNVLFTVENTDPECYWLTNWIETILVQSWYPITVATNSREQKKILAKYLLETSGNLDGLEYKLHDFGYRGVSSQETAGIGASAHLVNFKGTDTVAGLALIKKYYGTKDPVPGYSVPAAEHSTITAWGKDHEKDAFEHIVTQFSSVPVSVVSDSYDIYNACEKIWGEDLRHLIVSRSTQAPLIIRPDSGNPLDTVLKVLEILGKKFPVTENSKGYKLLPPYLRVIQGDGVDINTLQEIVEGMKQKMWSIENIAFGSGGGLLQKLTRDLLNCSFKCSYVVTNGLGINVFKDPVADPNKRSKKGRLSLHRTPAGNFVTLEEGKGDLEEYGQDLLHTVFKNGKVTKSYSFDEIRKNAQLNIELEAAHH

IC50 (Human NAMPT) [nM]	Compound	IC50 at 72 h ([1]; HCT116 cell cytotoxicity IC50) [nM]	IC50 at 72 h [1, 2] [nM]
~1	O=C(NCc1cccnc1)Nc1ccc(-n2cc(C(=O)N3CCC(N4CCOCC4)CC3)c3cccnc32)cc1 [Compound 27, 1-[4-[3-(4-morpholinopiperidine-1-carbonyl)pyrrolo[2,3-b]pyridin-1-yl]phenyl]-3-(3-pyridylmethyl)urea]	~4	–
< 1	O=C(NCc1cccnc1)Nc1ccc(-c2nn(C3CN(C4CCCC4)C3)c3ccccc23)cc1 [Compound 33, 1-{4-[1-(1-Cyclopentyl-azetidin-3-yl)-1H-indazol-3-yl]phenyl}-3-(pyridin-3-ylmethyl)urea]	~1	< 100
~1	O=C(NCc1cccnc1)Nc1ccc(-n2cc(C(=O)N3CC(N4CCNCC4)C3)c3ccccc32)cc1 [Compound 15, 1-[4-(3-{[3-(Piperazin-1-yl)azetidin-1-yl]carbonyl}-1H-indol-1-yl)phenyl]-3-(pyridin-3-ylmethyl)urea]	~60	–
~1	O=C(NCc1cccnc1)Nc1ccc(-n2cc(C3CCNCC3)c3ccccc32)cc1 [Compound 29, 1-[4-[3-(4-piperidyl)indol-1-yl]phenyl]-3-(3-pyridylmethyl)urea]	–	–
~10	O=C(NCc1cccnc1)Nc1ccc(-n2ccc(C(=O)NCCN3CCCC3)n2)cc1 [Compound 1, 1-(4-{[(Pyridin-3-ylmethyl)carbamoyl]amino}phenyl)-N-[2-(pyrrolidin-1-yl)ethyl]-1H-pyrazole-3-carboxamide]	–	–
~1	O=C(/C=C/c1ccc(-n2cc(CCN3CCOCC3)c3ccccc32)cc1)NCc1cccnc1 [Compound 175, (2E)-3-(4-{3-[2-(Morpholin-4-yl)ethyl]-1H-indol-1-yl}phenyl)-N-(pyridin-3-ylmethyl)prop-2-enamide]	~7	< 100
~1	O=C(NCc1cccnc1)Nc1ccc(-n2cc(C(=O)NCCCN3CCCC3)c3ccccc32)cc1 [Compound 4]	~8	–
~3	O=C(/C=C/c1ccc(-n2nc(C(=O)N3CC(N4CCOCC4)C3)c3ccccc32)cc1)NCc1cccnc1 [Compound 169, (2E)-3-[4-(3-{[3-(Morpholin-4-yl)azetidin-1-yl]carbonyl}-1H-indazol-1-yl)phenyl]-N-(pyridin-3-ylmethyl)prop-2-enamide]	~10	< 100
~2	Cc1c(-c2ccccc2)c(C(=O)O)nn1-c1ccc(NC(=O)NCc2cccnc2)cc1 [Compound 119, 5-Methyl-4-phenyl-1-(4-{[(pyridin-3-ylmethyl)carbamoyl]amino}phenyl)-1H-pyrazole-3-carboxylic acid]	–	–
< 1	CC(C)N1CCC2(CC1)CN(c1ccc(NC(=O)NCc3cccnc3)cc1)c1ccccc12 [Compound 61, 1-{4-[1′-(Propan-2-yl)spiro[indole-3,4′-piperidin]-1(2H)-yl]phenyl}-3-(pyridin-3-ylmethyl)urea]	–	–
–	CCOC(=O)c1cn(CCCCNC(=O)NCc2cccnc2)c2ccccc12 [Compound 45, Ethyl 1-(4-{[(pyridin-3-ylmethyl)carbamoyl]amino}butyl)-1H-indole-3-carboxylate]	–	< 100
–	O=C(NCc1cccnc1)Nc1ccc(-c2nn(CCN3CCCCC3)c3ccccc23)cc1 [Compound 75, 1-[4-[1-[2-(1-piperidyl)ethyl]indazol-3-yl]phenyl]-3-(3-pyridylmethyl)urea]	–	< 100
–	O=C(NCCCn1cc(C(=O)N2CCC(N3CCCCC3)CC2)c2ccccc21)NCc1cccnc1 [Compound 36, 1-{3-[3-(1,4′-Bipiperidin-1′-ylcarbonyl)-1H-indol-1-yl]propyl}-3-(pyridin-3-ylmethyl)urea]	–	≥ 100
–	O=C(NCc1cccnc1)Nc1ccc(-n2cc(-c3nccn3CCCN3CCCC3)c3ccccc32)cc1 [Compound 120, 1-(Pyridin-3-ylmethyl)-3-[4-(3-{1-[3-(pyrrolidin-1-yl)propyl]-1H-imidazol-2-yl}-1H-indol-1-yl)phenyl] urea]	≥ 100	–
–	O=C(/C=C/c1ccc(-n2nc(C(=O)N3CCC(N4CCCC4)CC3)c3ccccc32)cc1)NCc1cccnc1 [Compound 168, (2E)-N-(Pyridin-3-ylmethyl)-3-[4-(3-{[4-(pyrrolidin-1-yl)piperidin-1-yl]carbonyl}-1H-indazol-1-yl)phenyl]prop-2-enamide]	–	< 100
–	CN1CCN(C2CCN(C(=O)c3cn(CCCNC(=O)NCc4cccnc4)c4ccccc34)CC2)CC1 [Compound 125, 1-[3-(3-{[4-(4-Methylpiperazin-1-yl)piperidin-1-yl]carbonyl}-1H-indol-1-yl)propyl]-3-(pyridin-3-ylmethyl)urea]	–	< 100
–	O=C(NCc1cccnc1)Nc1ccc(-n2nc(N3CCN(C4COC4)CC3)c3ccccc32)cc1 [Compound 114, 1-(4-{3-[4-(Oxetan-3-yl)piperazin-1-yl]-1H-indazol-1-yl}phenyl)-3-(pyridin-3-ylmethyl)urea]	–	< 100
–	CC1CCCN1CCc1cn(-c2ccc(/C=C/C(=O)NCc3cccnc3)cc2)c2ccccc12 (stereo not drawn) [Compound 161, (2E)-3-(4-{3-[2-(2-Methylpyrrolidin-1-yl)ethyl]-1H-indol-1-yl)phenyl)-N-(pyridin-3-ylmethyl)prop-2-enamide]	–	< 100
–	O=C(NCc1cccnc1)Nc1ccc(-n2cc(-c3nccn3CCN3CCCC3)c3ccccc32)cc1 [Compound 72, 1-(Pyridin-3-ylmethyl)-3-[4-(3-{1-[2-(pyrrolidin-1-yl)ethyl]-1H-imidazol-2-yl}-1H-indol-1-yl)phenyl] urea]	–	< 100
–	O=C(NCc1cccnc1)Nc1ccc(-n2nc(C(=O)N3CCC(N4CCCC4)CC3)cc2C2CC2)cc1 [Compound 74, 1-[4-(5-Cyclopropyl-3-{[4-(pyrrolidin-1-yl)piperidin-1-yl]carbonyl}-1H-pyrazol-1-yl)phenyl]-3-(pyridin-3-ylmethyl)urea]	≥ 100	–
–	O=C(/C=C/c1ccc(-n2cc(CCN3CCCCC3)c3ccccc32)cc1)NCc1cccnc1 [Compound 182, (2E)-3-(4-{3-[2-(Piperidin-1-yl)ethyl]-1H-indol-1-yl}phenyl)-N-(pyridin-3-ylmethyl)prop-2-enamide]	–	< 100
–	CN1CCN(C2CCN(C(=O)c3cn(CCCCCNC(=O)NCc4cccnc4)c4ccccc34)CC2)CC1 [Compound 64, 1-[5-(3-{[4-(4-Methylpiperazin-1-yl)piperidin-1-yl]carbonyl}-1H-indol-1-yl)pentyl]-3-(pyridin-3-ylmethyl) urea]	–	< 100
–	O=C(NCc1cccnc1)N[C@H]1CC[C@@H](n2cc(C(=O)N3CCN(C4CCCCC4)CC3)c3ccccc32)CC1 [Compound 34, 1-(cis-4-{3-[(4-Cyclohexyl-piperazin-1-yl)carbonyl]-1H-indol-1-yl}cyclohexyl)-3-(pyridin-3-ylmethyl)urea]	–	≥ 100
–	CN(c1nn(-c2ccc(NC(=O)NCc3cccnc3)cc2)c2ccccc12)C1CCNC1 (stereo not drawn) [Compound 76, 1-(4-{3-[Methyl (pyrrolidin-3-yl)amino]-1H-indazol-1-yl}phenyl)-3-(pyridin-3-ylmethyl)urea]	–	< 100

Compound	IC50 (Human NAMPT) [nM]	IC50 at 72 h ([1]; HCT116 cell cytotoxicity IC50) [nM]	IC50 at 72 h [1, 2] [nM]
CC(C(=O)N(C)C)N1CCC2(CC1)CN(c1ccc(NC(=O)NCc3cccnc3)cc1)c1ccccc12 (stereo not drawn) [Compound 47, N,N-Dimethyl-2-[1-(4-{[(pyridin-3-ylmethyl)carbamoyl]ami-no}phenyl)-1,2-dihydro-1′H-spiro[indole-3,4′-piperidin]-1′-yl]propanamide]	< 1	< 1	< 100
